The target in one experiment is T1, PI3Kδ (Homo sapiens, UniProt O00329).
T1 construct: purchased Millipore 14-604
As to the kind of experiment: Inhibitory activity to PI3K δ, PI 3-Kinase (human) HTRF Assay kit. The experiment is classed as biochemical. Summed up: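 Inhibition of human PI3Kδ was assessed with the Millipore PI 3-Kinase (human) HTRF Assay kit. PI3Kδ was screened at 2 ng/well, diluted in 2×PIP2 operating fluid. Reactions were 20 μL and contained 100 μM ATP. Stop solution was Stop A and Stop B mixed 3:1. Detection solution was DM C, DM A and DM B mixed 18:1:1. Compounds were prepared from DMSO stocks, and percent inhibition was reported.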

The target of a further experiment is T2, PI3K α (Homo sapiens, UniProt P42336).
T2 construct: purchased Millipore 14-602
T2 sequence (P42336 whole entry): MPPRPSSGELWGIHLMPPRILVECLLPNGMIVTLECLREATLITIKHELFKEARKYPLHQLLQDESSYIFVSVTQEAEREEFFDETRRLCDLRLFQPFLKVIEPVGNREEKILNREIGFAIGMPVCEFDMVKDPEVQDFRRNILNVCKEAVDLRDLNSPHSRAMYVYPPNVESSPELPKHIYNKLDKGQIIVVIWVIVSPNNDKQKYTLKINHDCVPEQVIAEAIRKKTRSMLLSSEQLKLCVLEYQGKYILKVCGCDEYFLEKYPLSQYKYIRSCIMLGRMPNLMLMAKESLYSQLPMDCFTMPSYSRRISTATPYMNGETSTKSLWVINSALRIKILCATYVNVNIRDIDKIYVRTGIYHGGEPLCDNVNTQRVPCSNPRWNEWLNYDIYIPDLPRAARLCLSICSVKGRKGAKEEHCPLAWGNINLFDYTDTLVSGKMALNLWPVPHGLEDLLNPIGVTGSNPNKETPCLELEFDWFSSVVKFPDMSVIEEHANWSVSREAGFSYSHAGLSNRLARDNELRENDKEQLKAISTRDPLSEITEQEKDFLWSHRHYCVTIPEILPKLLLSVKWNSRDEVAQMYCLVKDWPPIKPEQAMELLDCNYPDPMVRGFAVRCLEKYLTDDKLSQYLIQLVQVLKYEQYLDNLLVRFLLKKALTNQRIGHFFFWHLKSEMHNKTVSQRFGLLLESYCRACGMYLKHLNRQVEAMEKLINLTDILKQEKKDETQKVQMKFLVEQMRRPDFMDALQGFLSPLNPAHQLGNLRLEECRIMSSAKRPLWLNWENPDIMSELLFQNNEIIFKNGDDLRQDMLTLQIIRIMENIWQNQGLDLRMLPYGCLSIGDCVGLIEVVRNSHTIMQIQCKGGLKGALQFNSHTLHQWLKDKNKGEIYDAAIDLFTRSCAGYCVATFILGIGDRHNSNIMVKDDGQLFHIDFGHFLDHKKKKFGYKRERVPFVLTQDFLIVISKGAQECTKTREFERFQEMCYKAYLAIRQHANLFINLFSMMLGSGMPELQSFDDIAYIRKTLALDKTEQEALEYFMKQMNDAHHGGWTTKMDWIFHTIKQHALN
T2 sequence (P27986 whole entry partner): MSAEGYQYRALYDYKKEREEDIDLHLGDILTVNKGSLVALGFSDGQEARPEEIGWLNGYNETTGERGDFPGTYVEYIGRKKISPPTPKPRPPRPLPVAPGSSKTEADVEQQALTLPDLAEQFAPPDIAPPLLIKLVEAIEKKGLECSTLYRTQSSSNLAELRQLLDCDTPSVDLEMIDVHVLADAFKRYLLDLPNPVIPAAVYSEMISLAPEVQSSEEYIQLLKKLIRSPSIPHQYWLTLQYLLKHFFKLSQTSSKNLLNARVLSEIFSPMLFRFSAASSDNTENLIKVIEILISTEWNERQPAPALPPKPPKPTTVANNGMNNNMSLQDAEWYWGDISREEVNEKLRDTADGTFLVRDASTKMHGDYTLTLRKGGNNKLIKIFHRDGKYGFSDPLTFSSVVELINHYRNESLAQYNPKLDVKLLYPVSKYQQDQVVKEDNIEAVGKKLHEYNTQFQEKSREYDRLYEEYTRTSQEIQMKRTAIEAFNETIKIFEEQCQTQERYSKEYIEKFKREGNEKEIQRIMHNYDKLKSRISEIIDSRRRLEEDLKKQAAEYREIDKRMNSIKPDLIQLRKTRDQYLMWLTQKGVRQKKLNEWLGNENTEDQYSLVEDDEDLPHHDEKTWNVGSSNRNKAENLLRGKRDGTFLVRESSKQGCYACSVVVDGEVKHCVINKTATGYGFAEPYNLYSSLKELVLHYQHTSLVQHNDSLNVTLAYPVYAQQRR
As to the kind of experiment: Inhibitory activity to PI3K α, PI 3-Kinase (human) HTRF Assay kit. The settings on record: read-out: % Inhibition Rate to PI3K α. It counts as biochemical. A digest of the protocol:
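HTRF assay using human PI3Kα at 8 ng/well, 100 μM ATP and PIP2 (2× working stock 20 μM) in 20 μL reaction containing 1% DMSO. Screened at 10 μM and 1 μM for percent inhibition, with selected compounds then taken to IC50 determination.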

Experiment [1] concerns PC-3 human prostate cancer cell strain. Put plainly: Antitumor cell proliferation in vitro, CCK-8 detection kit, PC-3. The experiment is classed as cell-based. The settings on record: Homo sapiens, PC-3, 72 h, PC-3 cells, 1st and 2nd test where printed. On the procedure: (§1) The half inhibitory concentration IC50 of proliferation of three kinds of tumor cell strain (U87MG, PC-3, BT474) for 12 candidate compounds of the present invention is detected by CCK-8 detection kits.
PC-3 human prostate cancer cell strain (cell bank of Chinese Academy of Sciences)
(§2) The studied compounds are dissolved by DMSO to make the final concentration 10 mM.
(§3) • a) Collecting the cells in logarithmic phase, counting, and resuspending the cells with complete medium. • b) Adjusting the concentration of cells to a suitable concentration, inoculating in 96 well plates, each well is inoculated to 100 μl cell suspension.
(§4) c) incubating cells for 24 hours in a 5% CO2 incubator at temperature of 37° C., under the condition of 100% relative humidity.
(§5) a) The cells in logarithmic phase is collected, counted, resuspended with complete medium. The concentration of cells is adjusted to a suitable concentration (determined in accordance with the optimizable test results of cell density), and the cells is inoculated in 96 well plates, wherein each well is inoculated 100 μl cell suspension, Cells are incubated for 24 hours in 5% CO2 incubator at temperature of 37° C. under the condition of 100% relative humidity.
(§6) b) The test compounds are diluted to 500 μM with culture medium, then diluted in series eight times. […] as 25 μl/well. The final concentrations of the compounds are diluted from 100 μM to 0 μM, with 4 times dilution, and there are a total of 10 concentration points.
(§7) c) Cells are incubated for 72 hours in 5% CO2 incubator at temperature of 37° C. under the condition of 100% relative humidity.
(§8) d) The culture medium is aspirated and discarded, and complete medium containing 10% CCK-8 is incubated in a incubator at 37° C. for 2˜4 hours.
(§9) e) After shocking gently, the absorbance of the culture medium is measured at 450 nm wavelength on SpectraMax M5 Microplate Reader, with the absorbance at 650 nm as reference, to calculate the inhibition rate.

The test system of experiment [2] is BT474 human breast cancer cell strain. Put plainly: Antitumor cell proliferation in vitro, CCK-8 detection kit, BT474. The settings on record: Homo sapiens, BT-474, 72 h, BT-474 cells, 1st and 2nd test where printed. The experiment is classed as cell-based. On the procedure:
as §1
BT474 human breast cancer cell strain (cell bank of Chinese Academy of Sciences) Reagents and materials:
as §2, §3, §4, §5, §6, §7, §8, §9

Setting [3] is: 10 μM (Table 7), read-out: Inhibition rate % to PI3Kδ.

Structures can show the parent of a compound that is named as a salt. Where two headings read alike, the source gives them in different places.

T1 sequence (O00329 whole entry): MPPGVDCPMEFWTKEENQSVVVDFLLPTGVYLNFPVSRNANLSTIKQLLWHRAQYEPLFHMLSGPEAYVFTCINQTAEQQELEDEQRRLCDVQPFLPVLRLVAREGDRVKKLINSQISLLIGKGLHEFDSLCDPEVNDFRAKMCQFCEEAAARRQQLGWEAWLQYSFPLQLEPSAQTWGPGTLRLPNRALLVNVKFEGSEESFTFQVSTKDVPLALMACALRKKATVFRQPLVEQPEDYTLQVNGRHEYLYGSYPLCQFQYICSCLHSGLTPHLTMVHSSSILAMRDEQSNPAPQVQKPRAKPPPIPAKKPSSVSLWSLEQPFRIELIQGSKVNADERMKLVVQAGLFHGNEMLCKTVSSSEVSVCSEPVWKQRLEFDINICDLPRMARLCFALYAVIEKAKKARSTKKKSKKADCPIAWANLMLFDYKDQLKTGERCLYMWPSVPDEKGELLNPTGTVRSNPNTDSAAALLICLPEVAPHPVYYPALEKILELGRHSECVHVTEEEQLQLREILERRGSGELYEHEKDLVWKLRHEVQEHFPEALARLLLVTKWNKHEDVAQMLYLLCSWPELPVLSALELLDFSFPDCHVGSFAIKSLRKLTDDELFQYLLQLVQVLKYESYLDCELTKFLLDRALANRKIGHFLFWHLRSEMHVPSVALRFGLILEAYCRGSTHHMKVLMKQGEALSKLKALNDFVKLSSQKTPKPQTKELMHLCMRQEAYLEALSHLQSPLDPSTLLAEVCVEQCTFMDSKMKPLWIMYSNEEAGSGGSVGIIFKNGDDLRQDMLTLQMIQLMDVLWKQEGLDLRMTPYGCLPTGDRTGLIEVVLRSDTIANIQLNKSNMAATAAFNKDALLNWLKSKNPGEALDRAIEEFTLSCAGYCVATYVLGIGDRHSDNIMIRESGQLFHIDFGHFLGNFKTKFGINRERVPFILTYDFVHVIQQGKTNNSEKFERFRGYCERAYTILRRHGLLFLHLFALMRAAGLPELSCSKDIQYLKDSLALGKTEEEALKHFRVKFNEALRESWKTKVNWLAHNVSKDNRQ
T1 sequence (P27986 whole entry partner): as the sequence (P27986 whole entry partner) above

With `c1ccc(-c2ccnc3ccc(Nc4nc(NC5CC5)c5nc[nH]c5n4)cc23)cc1` [MED1007-91, N6-cyclopropyl-N2-(4-phenylquinoline-6-yl)-9H-purine-2,6-diammonium salt dihydrate di-methanesulfonate], on PI3Kδ (1 μM (Table 7), dihydrate di-methanesulfonate, 1 µM), the “Inhibition rate % to PI3Kδ” value was 96.32%. The inhibition at 10 µM at PI3Kδ (setting [3]) was found to be 115%; on PI3K α, 124%. At PI3K α, the inhibition at 1 µM was 97%. Further, the concentration for half-maximal inhibition (IC50) is 0.654 µM in experiment [1] and 0.523 µM in experiment [2].

Consider `COC[C@H]1OC(=O)c2coc3c2[C@@]1(C)C1=C(C3=O)[C@@H]2CCC(=O)[C@@]2(C)C[C@H]1OC(C)=O` [Wortmannin, reference compound], for which the inhibition at 0.4 µM at PI3Kδ (0.4 μM (Table 8), read-out: Inhibition rate % to PI3K delta) was 93.4%. Also, the inhibition at 1 µM on PI3Kδ (1 μM (Table 7), read-out: Inhibition rate % to PI3Kδ) came to 95.4%; at PI3K α, 109%. Besides, the inhibition at 10 µM turned out to be 108% on PI3Kδ (setting [3]); 105% at PI3Kδ (10 μM (Table 8), read-out: Inhibition rate % to PI3K delta); 105% at PI3K α. Besides, at PI3Kδ (read-out: Inhibition rate % to PI3K delta), the inhibition at 2 µM was 109%. For the same molecule, the IC50 was 21.6 µM in experiment [1] and 5.21 µM in experiment [2].

Source of the values: patent US9718823B2, “2, 6-Di-nitrogen-containing substituted purine derivative, and preparation method, pharmaceutical composition and use thereof” (Zhejiang Medicine Co., Ltd. Xinchang Pharmaceutical Factory, priority 2013, dated 2017).
